Results: patent US6447748B1, “Benzamide compounds for cancer imaging and therapy” (Research Corporation Technologies, Inc., priority 1993, dated 2002)

What was measured:
[1] = system: human A2058 melanoma xenografts; test: Biodistribution in nude mice xenografted with human melanotic melanoma; format: in vivo, Balb/c nu/nu mice; settings: for RATIO Tumor/Blood / RATIO Tumor/Muscle / Biodistribution Blood / Biodistribution Bone / Biodistribution Brain / Biodistribution Heart / Biodistribution Intestine / Biodistribution Kidney / Biodistribution Liver / Biodistribution Lung / Biodistribution Muscle / Biodistribution Spleen / Biodistribution Stomach / Biodistribution Thyroid / Biodistribution Tumor: nude mice, human melanotic melanoma, mean (std. dev.); for Biodistribution Blood / Biodistribution Bone / Biodistribution Brain / Biodistribution Heart / Biodistribution Intestine / Biodistribution Kidney / Biodistribution Liver / Biodistribution Lung / Biodistribution Muscle / Biodistribution Spleen / Biodistribution Stomach / Biodistribution Thyroid / Biodistribution Tumor: n = 6
Protocol: A2058 tumor cells, derived from a brain metastasis of human malignant melanoma (Todaro et al. 1980 Proc. Natl. Acad. Sci. USA 77:5258) were obtained from the National Institutes of Health. […] Suspension of 5×10^6 cells (viability greater than 95%) in 0.2 mL of medium were inoculated subcutaneously in female Balb/c nu/nu mice. After about two weeks, solid tumors of about 1 cm in diameter appeared in approximately 85% of all inoculated mice. […] Balb/c nu/nu mice (17-22 g) were injected intravenously with 0.2 ml of a saline solution containing [^125I]PAB (5-6 μCi). […] The values obtained were normalized to a mouse weighing 20 g. The differences between [^125I]PAB and [^125I]DAB were examined by Student's unpaired t tests.

[2] = system: human squamous cell carcinoma xenografts; test: Biodistribution in nude mice xenografted with human squamous cell carcinoma; format: in vivo, Balb/c nu/nu mice; settings: for Biodistribution Blood / Biodistribution Bone / Biodistribution Brain / Biodistribution Heart / Biodistribution Intestine / Biodistribution Kidney / Biodistribution Liver / Biodistribution Lung / Biodistribution Spleen / Biodistribution Stomach / Biodistribution Thyroid / Biodistribution Tumor: nude mice, human squamous cell carcinoma, mean (std. dev.), n = 6
Protocol: Non-small cell lung carcinoma cell lines NCI-157, NCI-838 and NCI-1299 were obtained from the National Cancer Institute. The NCI-157 cell line is a squamous carcinoma cell line, while NCI-838 is an adenocarcinoma cell line and NCI-1299 is a large cell lung carcinoma cell. […] Suspension of 5×10^6 cells (viability greater than 95%) in 0.2 mL of medium were inoculated subcutaneously in female Balb/c nu/nu mice. After about two weeks, solid tumors of about 1 cm in diameter appeared in approximately 85% of all inoculated mice. […] Balb/c nu/nu mice (17-22 g) were injected intravenously with 0.2 ml of a saline solution containing [^125I]PAB (5-6 μCi). […] The values obtained were normalized to a mouse weighing 20 g.

## O=C(NCCN1CCCCC1)c1ccc([125I])cc1 [[^125I]PAB, ^125I(2-piperidinylaminoethyl)4-iodobenzamide]
[1]; 1 Hour
  RATIO Tumor/Blood: 4.16 (1.09)
  RATIO Tumor/Muscle: 7.16 (1.50)
  Biodistribution Blood: 0.967 (.168) % ID/g
  Biodistribution Bone: 0.750 (.0663) % ID/g
  Biodistribution Brain: 0.895 (.0887) % ID/g
  Biodistribution Heart: 1.14 (.207) % ID/g
  Biodistribution Intestine: 10.64 (.541) % ID/g
  Biodistribution Kidney: 3.82 (.561) % ID/g
  Biodistribution Liver: 6.36 (.770) % ID/g
  Biodistribution Lung: 2.34 (.277) % ID/g
  Biodistribution Muscle: 0.552 (.0711) % ID/g
  Biodistribution Spleen: 3.11 (.789) % ID/g
  Biodistribution Stomach: 3.23 (.697) % ID/g
  Biodistribution Thyroid: 4.23 (.594) % ID/g
  Biodistribution Tumor: 3.87 (.470) % ID/g
[1]; 6 Hour
  RATIO Tumor/Blood: 14.9 (5.07)
  RATIO Tumor/Muscle: 32.5 (12.0)
  Biodistribution Blood: 0.208 (.0542) % ID/g
  Biodistribution Bone: 0.115 (.0236) % ID/g
  Biodistribution Brain: 0.122 (.0331) % ID/g
  Biodistribution Heart: 0.167 (.0372) % ID/g
  Biodistribution Intestine: 2.46 (1.18) % ID/g
  Biodistribution Kidney: 0.483 (.131) % ID/g
  Biodistribution Liver: 1.16 (.212) % ID/g
  Biodistribution Lung: 0.387 (.0568) % ID/g
  Biodistribution Muscle: 0.0983 (.0306) % ID/g
  Biodistribution Spleen: 0.330 (.105) % ID/g
  Biodistribution Stomach: 0.757 (.298) % ID/g
  Biodistribution Thyroid: 0.583 (.203) % ID/g
  Biodistribution Tumor: 2.91 (.463) % ID/g
[1]; 24 Hour
  RATIO Tumor/Blood: 17.8 (6.10)
  RATIO Tumor/Muscle: 94.5 (32.5)
  Biodistribution Blood: 0.0617 (.018) % ID/g
  Biodistribution Bone: 0.0133 (.0052) % ID/g
  Biodistribution Brain: 0.0067 (.0052) % ID/g
  Biodistribution Heart: 0.0283 (.0075) % ID/g
  Biodistribution Intestine: 0.132 (.0852) % ID/g
  Biodistribution Kidney: 0.0850 (.016) % ID/g
  Biodistribution Liver: 0.263 (.0216) % ID/g
  Biodistribution Lung: 0.0717 (.0075) % ID/g
  Biodistribution Muscle: 0.0117 (.0041) % ID/g
  Biodistribution Spleen: 0.0383 (.015) % ID/g
  Biodistribution Stomach: 0.130 (0.881) % ID/g
  Biodistribution Thyroid: 0.100 (.143) % ID/g
  Biodistribution Tumor: 1.028 (.239) % ID/g
[1]; 24 hrs., melanoma xenograft
  amount in tumors relative to livers: about four-fold
  tumor concentration relative to that of [125I]DAB: twice
[2]; 1 hr.
  Biodistribution Blood: 1.99 (0.35) % ID/g
  Biodistribution Bone: 2.03 (0.28) % ID/g
  Biodistribution Brain: 1.80 (0.17) % ID/g
  Biodistribution Heart: 2.25 (0.07) % ID/g
  Biodistribution Intestine: 12.63 (0.43) % ID/g
  Biodistribution Kidney: 6.56 (0.04) % ID/g
  Biodistribution Liver: 10.48 (1.26) % ID/g
  Biodistribution Lung: 4.91 (0.25) % ID/g
  Biodistribution Spleen: 3.97 (0.18) % ID/g
  Biodistribution Stomach: 5.57 (1.31) % ID/g
  Biodistribution Thyroid: 7.84 (0.91) % ID/g
  Biodistribution Tumor: 4.27 (0.40) % ID/g
[2]; 6 hr.
  Biodistribution Blood: 0.51 (0.03) % ID/g
  Biodistribution Bone: 0.56 (0.18) % ID/g
  Biodistribution Brain: 0.29 (0.01) % ID/g
  Biodistribution Heart: 0.49 (0.03) % ID/g
  Biodistribution Intestine: 11.41 (0.52) % ID/g
  Biodistribution Kidney: 1.61 (0.28) % ID/g
  Biodistribution Liver: 3.47 (0.23) % ID/g
  Biodistribution Lung: 1.10 (0.03) % ID/g
  Biodistribution Spleen: 0.86 (0.20) % ID/g
  Biodistribution Stomach: 3.46 (0.18) % ID/g
  Biodistribution Thyroid: 2.80 (0.49) % ID/g
  Biodistribution Tumor: 3.27 (0.33) % ID/g
[2]; 24 hr.
  Biodistribution Blood: 0.15 (0.07) % ID/g
  Biodistribution Bone: 0.02 (0.00) % ID/g
  Biodistribution Brain: 0.01 (0.00) % ID/g
  Biodistribution Heart: 0.03 (0.00) % ID/g
  Biodistribution Intestine: 0.38 (0.09) % ID/g
  Biodistribution Kidney: 0.13 (0.00) % ID/g
  Biodistribution Liver: 0.39 (0.02) % ID/g
  Biodistribution Lung: 0.08 (0.00) % ID/g
  Biodistribution Spleen: 0.05 (0.00) % ID/g
  Biodistribution Stomach: 0.20 (0.03) % ID/g
  Biodistribution Thyroid: 0.09 (0.01) % ID/g
  Biodistribution Tumor: 0.66 (0.12) % ID/g
[2]; 24 hrs. post-injection, squamous cell carcinoma xenograft
  tumor concentration relative to that of [125I]DAB: more than three-fold
